Experimental data published in patent US9139532B2, “Pyrazolyl guanidine F1F0-atpase inhibitors and therapeutic uses thereof” (Lycera Corporation, priority 2010, dated 2015).
pEC50, pIC50: −log10 of the molar value. Where two headings read alike, the source gives them in different places.

How the values were obtained:
Ramos cells = experiment: Cytotoxicity in Ramos cells; assay type: cell-based; conditions: cytotoxicity in Ramos cells, read-out: Ramos Cell EC50
F1F0-ATPase = target: T1, F1F0-ATPase (Bos taurus, UniProt P13621); experiment: Inhibition of F1F0-ATPase activity in synthesizing ATP; assay type: biochemical; conditions: inhibition of ATP synthesis by F1F0-ATPase; read-out: ATP Syn IC50
T1 construct: from tissue

| SMILES | pIC50 (F1F0-ATPase) | pEC50 (Ramos cells; Homo sapiens) | pEC50 (Ramos cells) |
| --- | --- | --- | --- |
| CCC(C)NC(=NC(=O)c1cccc(C#N)c1)Nc1cc(-c2cc(F)cc(F)c2)n[nH]1 (stereo not drawn) [Compound A-313] | > 5.00 | > 5.00 | – |
| N#Cc1cccc(C(=O)/N=C(\Nc2cc(-c3cc(F)cc(F)c3)n[nH]2)NC2CCC2)c1 [Compound A-314] | > 5.00 | – | > 5.00 |
| CC(C)(C)N/C(=N/C(=O)c1cccc(C#N)c1)Nc1cc(-c2cc(F)cc(F)c2)n[nH]1 [Compound A-315] | > 5.00 | – | < 5.00 |
| Cc1ccc(-c2cc(N/C(=N\C(=O)c3ccc(F)c(F)c3)NC3CCCC3)[nH]n2)cc1F [Compound A-316] | > 5.00 | – | > 5.00 |
| Cc1ccc(-c2cc(N/C(=N\C(=O)c3ccc(F)c(F)c3)NCc3ccc(F)cc3Cl)[nH]n2)cc1F [Compound A-317] | > 5.00 | – | > 5.00 |
| Cc1ccc(-c2cc(N/C(=N\C(=O)c3ccc(F)c(F)c3)Nc3ccc(F)cc3Cl)[nH]n2)cc1F [Compound A-318] | < 5.00 | – | > 5.00 |
| Cc1ccc(-c2cc(N/C(=N\C(=O)c3ccc(F)c(F)c3)NC(C)C)[nH]n2)cc1F [Compound A-319] | > 5.00 | – | > 5.00 |
| Cc1ccc(-c2cc(N/C(=N\C(=O)c3ccc(F)c(F)c3)NC3CCC3)[nH]n2)cc1F [Compound A-320] | > 5.00 | – | > 5.00 |
| CCC(C)CN/C(=N/C(=O)c1ccc(F)c(F)c1)Nc1cc(-c2ccc(C)c(F)c2)n[nH]1 (stereo not drawn) [Compound A-321] | > 5.00 | – | > 5.00 |
| Cc1ccc(-c2cc(N/C(=N\C(=O)c3ccc(F)c(F)c3)NCCCOC(C)C)[nH]n2)cc1F [Compound A-322] | > 5.00 | – | > 5.00 |
| Cc1ccc(-c2cc(N/C(=N\C(=O)c3ccc(F)c(F)c3)NCC(C)C)[nH]n2)cc1F [Compound A-323] | > 5.00 | – | > 5.00 |
| Cc1ccc(-c2cc(N/C(=N\C(=O)c3ccc(F)c(F)c3)NC(C)C(C)C)[nH]n2)cc1F (stereo not drawn) [Compound A-324] | > 5.00 | – | > 5.00 |
| CCC(C)N/C(=N/C(=O)c1ccc(F)c(F)c1)Nc1cc(-c2ccc(C)c(F)c2)n[nH]1 (stereo not drawn) [Compound A-325] | > 5.00 | – | > 5.00 |
| Cc1ccc(-c2cc(N/C(=N\C(=O)c3ccc(C(F)(F)F)cc3)NC3CCCC3)[nH]n2)cc1F [Compound A-326] | > 5.00 | – | < 5.00 |
| Cc1ccc(-c2cc(NC(=NC(=O)c3ccc(C(F)(F)F)cc3)NCc3ccc(F)cc3Cl)[nH]n2)cc1F [Compound A-327] | < 5.00 | < 5.00 | – |
| Cc1ccc(-c2cc(N/C(=N\C(=O)c3ccc(C(F)(F)F)cc3)NC(C)C)[nH]n2)cc1F [Compound A-328] | > 5.00 | – | > 5.00 |
| Cc1ccc(-c2cc(N/C(=N\C(=O)c3ccc(C(F)(F)F)cc3)NC3CCC3)[nH]n2)cc1F [Compound A-329] | > 5.00 | – | > 5.00 |
| CCC(C)CN/C(=N/C(=O)c1ccc(C(F)(F)F)cc1)Nc1cc(-c2ccc(C)c(F)c2)n[nH]1 (stereo not drawn) [Compound A-330] | < 5.00 | – | < 5.00 |
| Cc1ccc(-c2cc(N/C(=N\C(=O)c3ccc(C(F)(F)F)cc3)NCC(C)C)[nH]n2)cc1F [Compound A-332] | > 5.00 | – | < 5.00 |
| Cc1ccc(-c2cc(N/C(=N\C(=O)c3ccc(C(F)(F)F)cc3)NC(C)C(C)C)[nH]n2)cc1F (stereo not drawn) [Compound A-333] | > 5.00 | – | < 5.00 |
| CCC(C)N/C(=N/C(=O)c1ccc(C(F)(F)F)cc1)Nc1cc(-c2ccc(C)c(F)c2)n[nH]1 (stereo not drawn) [Compound A-334] | > 5.00 | – | > 5.00 |
| CC(C)(C)c1n[nH]c(NC(=NC(=O)c2ccc(C(F)(F)F)cc2)NCc2ccc(F)cc2Cl)c1F [Compound A-335] | > 5.00 | > 5.00 | – |
| CC(C)(C)c1n[nH]c(N/C(=N\C(=O)c2ccc(C(F)(F)F)cc2)Nc2ccc(F)cc2Cl)c1F [Compound A-336] | > 5.00 | – | > 5.00 |
| CNC(=O)c1cc(NC(=NC(=O)c2ccc(C(F)(F)F)cc2)Nc2ccc(F)cc2Cl)[nH]n1 [Compound A-337] | < 5.00 | < 5.00 | – |
| COC(=O)c1cc(NC(=NC(=O)c2ccc(C(F)(F)F)cc2)NCc2ccc(F)cc2Cl)[nH]n1 [Compound A-338] | > 5.00 | > 5.00 | – |

Second part, led by results:

| pIC50 (F1F0-ATPase) | SMILES | pEC50 (Ramos cells; Homo sapiens) | pEC50 (Ramos cells) |
| --- | --- | --- | --- |
| > 5.00 | CC(C)(C)N/C(=N/C(=O)c1ccc(C(F)(F)F)cc1)Nc1[nH]nc(C(C)(C)C)c1F [Compound A-340] | – | > 5.00 |
| > 5.00 | Cc1cc(C(=O)/N=C(\Nc2cc(-c3ccc(F)cc3)n[nH]2)NC(C)(C)C)ccn1 [Compound A-341] | – | > 5.00 |
| > 5.00 | COC(=O)c1cccc(C(=O)/N=C(\Nc2cc(-c3ccc(F)cc3)n[nH]2)NC(C)(C)C)c1 [Compound A-342] | – | > 5.00 |
| > 5.00 | N#CC1(N/C(=N/C(=O)c2ccc(Cl)c(F)c2)Nc2cc(-c3cc(F)cc(F)c3)n[nH]2)CC1 [Compound A-343] | < 5.00 | – |
| > 5.00 | CC(C)OCCCNC(=NC(=O)c1ccc(Cl)c(F)c1)Nc1cc(-c2cc(F)cc(F)c2)n[nH]1 [Compound A-344] | > 5.00 | – |
| < 5.00 | CC(C)(C)c1cc(NC(=NC(=O)c2ccc(Cl)c(F)c2)Nc2cc(-c3cc(F)cc(F)c3)n[nH]2)no1 [Compound A-345] | < 5.00 | – |
| > 5.00 | CCC(C)CN/C(=N/C(=O)c1ccc(Cl)c(F)c1)Nc1cc(-c2cc(F)cc(F)c2)n[nH]1 (stereo not drawn) [Compound A-346] | – | > 5.00 |
| > 5.00 | O=C(/N=C(\Nc1cc(-c2cc(F)cc(F)c2)n[nH]1)NC1CCC1)c1ccc(Cl)c(F)c1 [Compound A-347] | – | > 5.00 |
| > 5.00 | CCCC(C)NC(=NC(=O)c1ccc(Cl)c(F)c1)Nc1cc(-c2cc(F)cc(F)c2)n[nH]1 (stereo not drawn) [Compound A-348] | > 5.00 | – |
| > 5.00 | CC(C)CCNC(=NC(=O)c1ccc(Cl)c(F)c1)Nc1cc(-c2cc(F)cc(F)c2)n[nH]1 [Compound A-349] | > 5.00 | – |
| > 5.00 | CCC(CC)NC(=NC(=O)c1ccc(Cl)c(F)c1)Nc1cc(-c2cc(F)cc(F)c2)n[nH]1 [Compound A-350] | > 5.00 | – |
| > 5.00 | CC(C)C(C)NC(=NC(=O)c1ccc(Cl)c(F)c1)Nc1cc(-c2cc(F)cc(F)c2)n[nH]1 (stereo not drawn) [Compound A-351] | > 5.00 | – |
| > 5.00 | CC(C)CN/C(=N/C(=O)c1ccc(Cl)c(F)c1)Nc1cc(-c2cc(F)cc(F)c2)n[nH]1 [Compound A-352] | – | > 5.00 |
| > 5.00 | CC(C)N/C(=N/C(=O)c1ccc(Cl)c(F)c1)Nc1cc(-c2cc(F)cc(F)c2)n[nH]1 [Compound A-359] | – | > 5.00 |
| > 5.00 | CCCCN/C(=N/C(=O)c1ccc(Cl)c(F)c1)Nc1cc(-c2cc(F)cc(F)c2)n[nH]1 [Compound A-360] | – | > 5.00 |
| > 5.00 | O=C(/N=C(/NCC1CC1)Nc1cc(-c2cc(F)cc(F)c2)n[nH]1)c1ccc(Cl)c(F)c1 [Compound A-361] | – | > 5.00 |
| > 5.00 | CCC(C)NC(=NC(=O)c1ccc(Cl)c(F)c1)Nc1cc(-c2cc(F)cc(F)c2)n[nH]1 (stereo not drawn) [Compound A-362] | > 5.00 | – |
| > 5.00 | COCC(C)NC(=NC(=O)c1ccc(F)c(F)c1)Nc1cc(-c2cc(F)cc(F)c2)n[nH]1 (stereo not drawn) [Compound A-363] | > 5.00 | – |

| pIC50 (F1F0-ATPase) | SMILES | pEC50 (Ramos cells; Homo sapiens) | pEC50 (Ramos cells) |
| --- | --- | --- | --- |
| > 5.00 | CC(C)CNC(=NC(=O)c1ccc(F)c(F)c1)Nc1cc(-c2cc(F)cc(F)c2)n[nH]1 [Compound A-364] | > 5.00 | – |
| > 5.00 | O=C(N=C(Nc1cc(-c2cc(F)cc(F)c2)n[nH]1)NC1CCCC1)c1ccc(F)c(F)c1 [Compound A-365] | > 5.00 | – |
| > 5.00 | CC(C)N/C(=N/C(=O)c1ccc(F)c(F)c1)Nc1cc(-c2cc(F)cc(F)c2)n[nH]1 [Compound A-366] | – | > 5.00 |
| > 5.00 | COCC(C)NC(=NC(=O)c1cccc(F)c1)Nc1cc(-c2cc(F)cc(F)c2)n[nH]1 (stereo not drawn) [Compound A-367] | – | > 5.00 |
| > 5.00 | CC(C)CN/C(=N/C(=O)c1cccc(F)c1)Nc1cc(-c2cc(F)cc(F)c2)n[nH]1 [Compound A-368] | – | > 5.00 |
| > 5.00 | O=C(N=C(Nc1cc(-c2cc(F)cc(F)c2)n[nH]1)NC1CCCC1)c1cccc(F)c1 [Compound A-369] | > 5.00 | – |
| > 5.00 | CC(C)NC(=NC(=O)c1cccc(F)c1)Nc1cc(-c2cc(F)cc(F)c2)n[nH]1 [Compound A-370] | > 5.00 | – |
| < 5.00 | COCC(C)NC(=NC(=O)c1ccc(OC)cc1F)Nc1cc(-c2ccc(F)cc2)n[nH]1 (stereo not drawn) [Compound A-371] | – | < 5.00 |
| > 5.00 | COc1ccc(C(=O)/N=C(/NCC(C)C)Nc2cc(-c3ccc(F)cc3)n[nH]2)c(F)c1 [Compound A-372] | – | < 5.00 |
| > 5.00 | COc1ccc(C(=O)/N=C(\Nc2cc(-c3ccc(F)cc3)n[nH]2)NC(C)(C)C)c(F)c1 [Compound A-373] | – | > 5.00 |
| > 5.00 | COc1ccc(C(=O)/N=C(\Nc2cc(-c3ccc(F)cc3)n[nH]2)NC(C)C)c(F)c1 [Compound A-374] | – | > 5.00 |
| > 5.00 | CC(C)(C)N/C(=N/C(=O)c1ccc(S(N)(=O)=O)cc1)Nc1cc(-c2ccc(F)cc2)n[nH]1 [Compound A-375] | – | > 5.00 |
| > 5.00 | COCC(C)NC(=NC(=O)c1ccc(F)c(F)c1)Nc1cc(-c2ccc(Cl)cc2)n[nH]1 (stereo not drawn) [Compound A-376] | > 5.00 | – |
| > 5.00 | CC(C)CN/C(=N/C(=O)c1ccc(F)c(F)c1)Nc1cc(-c2ccc(Cl)cc2)n[nH]1 [Compound A-377] | – | > 5.00 |
| > 5.00 | O=C(N=C(Nc1cc(-c2ccc(Cl)cc2)n[nH]1)NC1CCCC1)c1ccc(F)c(F)c1 [Compound A-378] | > 5.00 | – |
| > 5.00 | CC(C)NC(=NC(=O)c1ccc(F)c(F)c1)Nc1cc(-c2ccc(Cl)cc2)n[nH]1 [Compound A-379] | > 5.00 | – |
| > 5.00 | COC[C@H](C)N/C(=N/C(=O)c1ccc(Cl)c(F)c1)Nc1cc(-c2ccc(Cl)cc2)n[nH]1 [Compound A-380] | – | > 5.00 |
